According to ChEMBL document CHEMBL2074318, “Expression, transport properties, and chromosomal location of organic anion transporter subtype 3” (Am J Physiol Gastrointest Liver Physiol, 2000):

T1: Solute carrier organic anion transporter family member 1A5 (Rattus norvegicus, UniProt O88397)
T1 sequence (O88397 whole entry): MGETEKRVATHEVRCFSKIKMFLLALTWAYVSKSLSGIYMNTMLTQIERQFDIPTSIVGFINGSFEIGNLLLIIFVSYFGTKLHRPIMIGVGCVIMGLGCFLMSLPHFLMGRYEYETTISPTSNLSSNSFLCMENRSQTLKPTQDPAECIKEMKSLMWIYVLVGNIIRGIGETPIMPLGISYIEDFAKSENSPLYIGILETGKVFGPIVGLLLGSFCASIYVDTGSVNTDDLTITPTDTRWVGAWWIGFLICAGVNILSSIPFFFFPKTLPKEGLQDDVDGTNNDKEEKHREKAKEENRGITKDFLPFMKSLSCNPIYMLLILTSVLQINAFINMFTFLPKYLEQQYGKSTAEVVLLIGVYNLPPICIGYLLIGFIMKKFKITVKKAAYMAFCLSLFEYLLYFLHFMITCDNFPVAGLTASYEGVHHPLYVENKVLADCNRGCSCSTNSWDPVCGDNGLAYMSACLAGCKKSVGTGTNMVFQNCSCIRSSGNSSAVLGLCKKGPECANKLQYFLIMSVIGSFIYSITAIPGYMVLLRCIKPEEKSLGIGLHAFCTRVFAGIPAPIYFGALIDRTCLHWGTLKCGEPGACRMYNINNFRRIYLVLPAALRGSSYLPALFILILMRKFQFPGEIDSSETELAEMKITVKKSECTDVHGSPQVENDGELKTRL

T2: Ileal sodium/bile acid cotransporter (Rattus norvegicus, UniProt Q62633)
T2 sequence (Q62633 whole entry): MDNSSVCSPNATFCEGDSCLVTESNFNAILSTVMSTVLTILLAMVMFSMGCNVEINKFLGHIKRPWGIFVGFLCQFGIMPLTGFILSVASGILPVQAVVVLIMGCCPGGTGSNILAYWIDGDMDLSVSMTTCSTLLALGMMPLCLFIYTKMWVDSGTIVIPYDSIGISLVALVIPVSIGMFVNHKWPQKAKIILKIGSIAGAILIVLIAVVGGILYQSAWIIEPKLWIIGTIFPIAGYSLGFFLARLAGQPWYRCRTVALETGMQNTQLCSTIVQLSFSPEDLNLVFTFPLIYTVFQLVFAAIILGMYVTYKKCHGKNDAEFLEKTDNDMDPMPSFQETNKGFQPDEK

B1: Solute carrier organic anion transporter family member 1A5 (Rattus norvegicus) (protein)
chain: T1 sequence (O88397 whole entry)

Key:
Assay type in all cases: functional, cell-based
[1] = biological target: T1, Solute carrier organic anion transporter family member 1A5; experiment: TP_TRANSPORTER: inhibition of Taurocholate uptake (Taurocholate: 10 uM, DIDS: 1000 uM) in Oatp3-expressing MDCK cells; conditions: dog
[2] = biological target: T1, Solute carrier organic anion transporter family member 1A5; experiment: TP_TRANSPORTER: uptake in Oatp3-expressing COS cells; conditions: monkey
[3] = biological target: T2, Ileal sodium/bile acid cotransporter; experiment: TP_TRANSPORTER: uptake in ASBT-expressing COS cells; conditions: monkey
[4] = substrate: C[C@H](CCC(=O)NCCS(=O)(=O)O)[C@H]1CC[C@H]2[C@@H]3[C@H](O)C[C@@H]4C[C@H](O)CC[C@]4(C)[C@H]3CC[C@]12C; experiment: (§1) TP_TRANSPORTER: uptake in Oatp3-expressing MDCK cells
[5] = substrate: C[C@H](CCC(=O)NCC(=O)O)[C@H]1CC[C@H]2[C@@H]3[C@H](O)C[C@@H]4C[C@H](O)CC[C@]4(C)[C@H]3C[C@H](O)[C@]12C; experiment: as §1
[6] = substrate: C[C@H](CCC(=O)NCCS(=O)(=O)O)[C@H]1CC[C@H]2[C@@H]3CC[C@@H]4C[C@H](O)CC[C@]4(C)[C@H]3C[C@H](O)[C@]12C; experiment: as §1
[7] = substrate: C[C@H](CCC(=O)NCC(=O)O)[C@H]1CC[C@H]2[C@@H]3[C@@H](O)C[C@@H]4C[C@H](O)CC[C@]4(C)[C@H]3CC[C@]12C; experiment: as §1
[8] = substrate: C[C@H](CCC(=O)NCCS(=O)(=O)O)[C@H]1CC[C@H]2[C@@H]3[C@@H](O)C[C@@H]4C[C@H](O)CC[C@]4(C)[C@H]3CC[C@]12C; experiment: as §1
[9] = substrate: C[C@H](CCC(=O)NCC(=O)O)[C@H]1CC[C@H]2[C@@H]3CC[C@@H]4C[C@H](O)CC[C@]4(C)[C@H]3C[C@H](O)[C@]12C; experiment: as §1
[10] = substrate: C[C@H](CCC(=O)NCC(=O)O)[C@H]1CC[C@H]2[C@@H]3[C@H](O)C[C@@H]4C[C@H](O)CC[C@]4(C)[C@H]3CC[C@]12C; experiment: as §1

| Molecule | Activity [2] | Activity [3] | other results |
| --- | --- | --- | --- |
| O=S(=O)(O)c1cc(N=C=S)ccc1/C=C/c1ccc(NC=S)cc1S(=O)(=O)O |  |  | Activity [1]: inhibitor [(at a rough estimate) 15 % of control] |
| C[C@H](CCC(=O)NCC(=O)O)[C@H]1CC[C@H]2[C@@H]3[C@H](O)C[C@@H]4C[C@H](O)CC[C@]4(C)[C@H]3CC[C@]12C [GLYCOCHENODEOXYCHOLATE] | substrate [+] | substrate [+] |  |
| C[C@H](CCC(=O)NCC(=O)O)[C@H]1CC[C@H]2[C@@H]3[C@H](O)C[C@@H]4C[C@H](O)CC[C@]4(C)[C@H]3C[C@H](O)[C@]12C [GLYCOCHOLIC ACID] | substrate [+] | substrate [+] |  |
| C[C@H](CCC(=O)NCC(=O)O)[C@H]1CC[C@H]2[C@@H]3CC[C@@H]4C[C@H](O)CC[C@]4(C)[C@H]3C[C@H](O)[C@]12C [GLYCODEOXYCHOLATE] | substrate [+] | substrate [+] |  |
| C[C@H](CCC(=O)NCC(=O)O)[C@H]1CC[C@H]2[C@@H]3[C@@H](O)C[C@@H]4C[C@H](O)CC[C@]4(C)[C@H]3CC[C@]12C [GLYCOURSODEOXYCHOLIC ACID] | substrate [+] | substrate [+] |  |
| C[C@H](CCC(=O)NCCS(=O)(=O)O)[C@H]1CC[C@H]2[C@@H]3[C@H](O)C[C@@H]4C[C@H](O)CC[C@]4(C)[C@H]3CC[C@]12C [TAUROCHENODEOXYCHOLATE] | substrate [+] | substrate [+] |  |
| C[C@H](CCC(=O)NCCS(=O)(=O)O)[C@H]1CC[C@H]2[C@@H]3CC[C@@H]4C[C@H](O)CC[C@]4(C)[C@H]3C[C@H](O)[C@]12C [TAURODEOXYCHOLIC ACID] | substrate [+] | substrate [+] |  |
| C[C@H](CCC(=O)NCCS(=O)(=O)O)[C@H]1CC[C@H]2[C@@H]3[C@@H](O)C[C@@H]4C[C@H](O)CC[C@]4(C)[C@H]3CC[C@]12C [TAURURSODIOL] | substrate [+] | substrate [+] |  |
| B1 |  |  | Km [4]: 7 µM; Km [5]: 15.4 µM; Km [6]: 5.8 µM; Km [7]: 5.3 µM; Km [8]: 6.6 µM; Km [9]: 4.3 µM; Km [10]: 5.6 µM |
